The target of test [1] is T1, Cif (Pseudomonas aeruginosa (strain UCBPP-PA14), UniProt A0A0H2ZD27). The experiment in a line: Primary high throughput screen with fluorogenic substrate CMNGC.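 Also: fluorescence of 200 µL reactions in 96-well plates read on a plate reader, inhibitor at tenfold molar excess over Cif enzyme.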 Type of test: biochemical. Conditions: primary screen; test compounds at 10 μM, 1 μM Cif, 25 μM CMNGC, 60 minutes.
Test [2] deals with T1, Cif. Briefly: Secondary screen (sextuplicate) with fluorogenic substrate CMNGC.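 Also: purified enzyme assay in 96-well plates, 200 µL volume, fluorescence recorded each minute across a 60 min reaction.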 The test is classed as biochemical.
The mark [3] stands for this setting: read-out: % Inhibition, Mean ± SD.
Where [4] appears, read: read-out: % Inhibition, plate 1.
The mark [5] stands for this setting: read-out: % Inhibition, plate 2.
Where [6] appears, read: read-out: % Inhibition, plate 3.
Setting [7] is: read-out: % Inhibition, plate 4.
Where [8] appears, read: read-out: % Inhibition, plate 5.
Setting [9] is: read-out: % Inhibition, plate 6.

SMILES strings stand for the structures. Counter-ions that a name gives are not always drawn.

We go through 24 molecules from US10322118B2, “Compounds and methods for inhibiting Cif virulence factor” (priority 2012, dated 2019).

T1 sequence (A0A0H2ZD27 25-319 limits assumed): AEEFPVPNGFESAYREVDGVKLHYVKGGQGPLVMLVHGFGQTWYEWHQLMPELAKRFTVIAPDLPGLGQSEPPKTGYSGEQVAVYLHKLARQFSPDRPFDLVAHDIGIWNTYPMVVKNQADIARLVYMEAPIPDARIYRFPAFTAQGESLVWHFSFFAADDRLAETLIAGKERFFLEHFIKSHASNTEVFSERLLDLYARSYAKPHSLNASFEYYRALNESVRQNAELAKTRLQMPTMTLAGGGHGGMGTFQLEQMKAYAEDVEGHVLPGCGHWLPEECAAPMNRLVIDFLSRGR

In the case of `CC(C(=O)O)c1cccc(C(=O)c2ccccc2)c1` (centres unmarked) [Ketoprofen], the inhibition at 10 µM worked out at 34% in test [1]; 9 ± 5% in test [2] (setting [3]); 2% in test [2] (setting [4]); 14% in test [2] (setting [5]); 9% in test [2] (setting [6]); 8% in test [2] (setting [7]). The inhibition at 10 µM was 15% in test [2] (setting [8]) and 4% in test [2] (setting [9]).

For the molecule `CN(C)CCCN1c2ccccc2Sc2ccc(C(F)(F)F)cc21` [Triflupromazine hydrochloride], the inhibition at 10 µM is 33% in test [1]; 2 ± 6% in test [2] (setting [3]); 4% in test [2] (setting [4]); 10% in test [2] (setting [5]); -2% in test [2] (setting [6]); 1% in test [2] (setting [7]). Besides, the inhibition at 10 µM in test [2] (setting [8]) was 8%; in test [2] (setting [9]), -6%.

For `Nc1nc(N)c2nc(-c3ccccc3)c(N)nc2n1` [Triamterene], the inhibition at 10 µM in test [1] worked out at 35%; in test [2] (setting [3]), 19 ± 5%; in test [2] (setting [4]) it was 15%; in test [2] (setting [5]), 17%; in test [2] (setting [6]) it was 18%; in test [2] (setting [7]), 21%. Also, the inhibition at 10 µM in test [2] (setting [8]) was found to be 28%; in test [2] (setting [9]), 16%.

Take `C[C@]12CC[C@H]3C(=CCc4cc(O)ccc43)[C@@H]1CCC2=O` [Equilin]: in test [1], the inhibition at 10 µM came to 71%.

As for `CC(=O)CC(c1ccccc1)c1c(O)c2ccccc2oc1=O` (centres unmarked) [Warfarin], the inhibition at 10 µM in test [1] worked out at 32%; in test [2] (setting [3]), 15 ± 3%; in test [2] (setting [4]), 12%; in test [2] (setting [5]), 12%; in test [2] (setting [6]), 17%; in test [2] (setting [7]), 15%. The results for the inhibition at 10 µM in test [2] (setting [8]) and in test [2] (setting [9]) were 20% and 17%, respectively.

As to `CN(C)CCOc1ccc(/C(=C(/CCCl)c2ccccc2)c2ccccc2)cc1` [Toremiphene citrate], the inhibition at 10 µM in test [1] stood at 31%; in test [2] (setting [3]) it was 10 ± 4%; in test [2] (setting [4]), 3%; in test [2] (setting [5]) it was 7%; in test [2] (setting [6]), 13%; in test [2] (setting [7]) it was 12%. Further, the inhibition at 10 µM in test [2] (setting [8]) amounted to 15%; in test [2] (setting [9]), 11%.

In the case of `CO[C@@]1(NC(=O)Cc2cccs2)C(=O)N2C(C(=O)O)=C(COC(N)=O)CS[C@@H]21` [Cefoxitin sodium], the inhibition at 10 µM was 32% in test [1]; 10 ± 8% in test [2] (setting [3]); -3% in test [2] (setting [4]); 16% in test [2] (setting [5]); 5% in test [2] (setting [6]); 9% in test [2] (setting [7]). For the same molecule, the inhibition at 10 µM turned out to be 19% in test [2] (setting [8]) and 14% in test [2] (setting [9]).

For the molecule `C[C@]12CCC(=O)C=C1C=C[C@@H]1[C@@H]2CC[C@@]2(C)[C@H]1CC[C@@]21CCC(=O)O1` [Canrenone], the inhibition at 10 µM turned out to be 36% in test [1]; 24 ± 5% in test [2] (setting [3]); 16% in test [2] (setting [4]); 27% in test [2] (setting [5]); 20% in test [2] (setting [6]); 24% in test [2] (setting [7]). The values for the inhibition at 10 µM in test [2] (setting [8]) and in test [2] (setting [9]) were 28% and 27%, respectively.

Regarding `CCN(CC)CCOc1ccc2c(c1)C(=O)c1cc(OCCN(CC)CC)ccc1-2` [Tilorone], the inhibition at 10 µM in test [1] was 36%; in test [2] (setting [3]), 6 ± 4%; in test [2] (setting [4]) it was 4%; in test [2] (setting [5]) it was 5%; in test [2] (setting [6]) it was 5%; in test [2] (setting [7]) it was 11%. The inhibition at 10 µM in test [2] (setting [8]) stood at 10%; in test [2] (setting [9]), 0%.

Consider `C=CC1=C(C)c2cc3[nH]c(cc4nc(cc5[nH]c(cc1n2)c(C)c5CCC(=O)O)C(CCC(=O)O)=C4C)c(C)c3C=C` [Protoporphyrin ix], for which the inhibition at 10 µM was 46% in test [1]; 20 ± 7% in test [2] (setting [3]); 12% in test [2] (setting [4]); 16% in test [2] (setting [5]); 21% in test [2] (setting [6]); 18% in test [2] (setting [7]). Moreover, the results for the inhibition at 10 µM in test [2] (setting [8]) and in test [2] (setting [9]) were 28% and 29%, respectively.

With `NCC(O)c1ccc(O)cc1` (centres unmarked) [Octopamine hydrochloride], the inhibition at 10 µM in test [1] worked out at 42%; in test [2] (setting [3]), 11 ± 6%; in test [2] (setting [4]), 1%; in test [2] (setting [5]), 6%; in test [2] (setting [6]), 12%; in test [2] (setting [7]), 9%. Besides, the inhibition at 10 µM in test [2] (setting [8]) was 18%; in test [2] (setting [9]), 17%.

In the case of `CC(C)Cc1ccc(C(C)C(=O)O)cc1` (centres unmarked) [Ibuprofen], the inhibition at 10 µM was determined as 48% in test [1]; 7 ± 5% in test [2] (setting [3]); 1% in test [2] (setting [4]); 6% in test [2] (setting [5]); 5% in test [2] (setting [6]); 8% in test [2] (setting [7]). The results for the inhibition at 10 µM in test [2] (setting [8]) and in test [2] (setting [9]) were 15% and 7%, respectively.

With `Cc1cccc(Nc2ccccc2C(=O)O)c1C` [Mefenamic acid], the inhibition at 10 µM is 48% in test [1]; 16 ± 8% in test [2] (setting [3]); 5% in test [2] (setting [4]); 24% in test [2] (setting [5]); 17% in test [2] (setting [6]); 22% in test [2] (setting [7]). In addition, the inhibition at 10 µM in test [2] (setting [8]) stood at 20%; in test [2] (setting [9]), 6%.

Regarding `C[N+](C)(C)CC(=O)O` [Betaine hydrochloride], the inhibition at 10 µM is 33% in test [1]; 13 ± 6% in test [2] (setting [3]); 6% in test [2] (setting [4]); 10% in test [2] (setting [5]); 9% in test [2] (setting [6]); 17% in test [2] (setting [7]). The figures for the inhibition at 10 µM in test [2] (setting [8]) and in test [2] (setting [9]) were 20% and 18%, respectively.

Regarding `COC(=O)/C=C/C(=O)OC` [Dimethyl fumarate], the inhibition at 10 µM in test [1] was 36%; in test [2] (setting [3]) it was 5 ± 4%; in test [2] (setting [4]) it was 3%; in test [2] (setting [5]), -2%; in test [2] (setting [6]) it was 8%; in test [2] (setting [7]), 7%. Also, the values for the inhibition at 10 µM in test [2] (setting [8]) and in test [2] (setting [9]) were 9% and 6%, respectively.

As to `Nc1nc(Cl)nc2c1ncn2[C@@H]1O[C@H](CO)[C@@H](O)[C@@H]1F` [Clofarabine], the inhibition at 10 µM in test [1] is 43%; in test [2] (setting [3]), 12 ± 5%; in test [2] (setting [4]) it was 7%; in test [2] (setting [5]) it was 8%; in test [2] (setting [6]), 7%; in test [2] (setting [7]) it was 13%. For the same molecule, the inhibition at 10 µM in test [2] (setting [8]) was determined as 20%; in test [2] (setting [9]) it was 16%.

With `O=C(CCCN1CCN(c2ccccn2)CC1)c1ccc(F)cc1` [Azaperone], in test [1], the inhibition at 10 µM worked out at 79%.

In the case of `S=c1nc[nH]c2nc[nH]c12` [Mercaptopurine], the inhibition at 10 µM is 32% in test [1]; 13 ± 5% in test [2] (setting [3]); 5% in test [2] (setting [4]); 15% in test [2] (setting [5]); 19% in test [2] (setting [6]); 15% in test [2] (setting [7]). Moreover, the inhibition at 10 µM came to 15% in test [2] (setting [8]) and 11% in test [2] (setting [9]).

As to `NC[C@H]1O[C@H](O[C@H]2[C@H](O)[C@@H](O[C@H]3O[C@H](CO)[C@@H](O)[C@H](N)[C@H]3O)[C@H](N)C[C@@H]2N)[C@H](N)C[C@@H]1O` [Tobramycin], the inhibition at 10 µM is 40% in test [1]; -8 ± 7% in test [2] (setting [3]); -5% in test [2] (setting [4]); -7% in test [2] (setting [5]); -5% in test [2] (setting [6]); -12% in test [2] (setting [7]). Also, the inhibition at 10 µM in test [2] (setting [8]) was 0%; in test [2] (setting [9]) it was -21%.

Take `CCCCCCCCCCCCCCCCOP(=O)([O-])OCC[N+](C)(C)C` [Miltefosine]: the inhibition at 10 µM in test [1] came to 34%; in test [2] (setting [3]), 8 ± 4%; in test [2] (setting [4]) it was 4%; in test [2] (setting [5]), 3%; in test [2] (setting [6]), 11%; in test [2] (setting [7]) it was 10%. Further, the inhibition at 10 µM in test [2] (setting [8]) and in test [2] (setting [9]) was 11% each time.

For `Nc1ccc(S(=O)(=O)Nc2ncccn2)cc1` [Sulfadiazine], the inhibition at 10 µM in test [1] was 42%; in test [2] (setting [3]) it was 23 ± 4%; in test [2] (setting [4]), 23%; in test [2] (setting [5]), 24%; in test [2] (setting [6]), 24%; in test [2] (setting [7]) it was 26%. Besides, the inhibition at 10 µM worked out at 28% in test [2] (setting [8]) and 15% in test [2] (setting [9]).

For the molecule `CCOC(=O)[C@H](CCc1ccccc1)N[C@@H](C)C(=O)N1CCC[C@H]1C(=O)O` [Enalapril maleate], the inhibition at 10 µM in test [1] is 31%; in test [2] (setting [3]), 4 ± 8%; in test [2] (setting [4]), -6%; in test [2] (setting [5]), 13%; in test [2] (setting [6]) it was 1%; in test [2] (setting [7]), 9%. The inhibition at 10 µM is 10% in test [2] (setting [8]) and -3% in test [2] (setting [9]).

With `C[C@H]1O[C@H](O[C@H]2[C@H](O)[C@@H](O)[C@@H](O[C@H]3[C@H](O)[C@@H](O)C(O)O[C@@H]3CO)O[C@@H]2CO)[C@H](O)[C@@H](O)[C@@H]1N[C@H]1C=C(CO)[C@@H](O)[C@H](O)[C@H]1O` (some centres unmarked) [Acarbose], the inhibition at 10 µM in test [1] is 47%.

Take `O=C([O-])c1ccccc1-c1c2cc(Br)c(=O)cc-2oc2[c]([Hg+])c([O-])c(Br)cc12.[Na+].[Na+].[OH-]` [Merbromin]: in test [1], the “% Inhibition” value amounted to 47%.
